ChEMBL document CHEMBL1806493, “Synthesis and biological activities of 4-N-(anilinyl-n-[oxazolyl])-7-chloroquinolines (n=3' or 4') against Plasmodium falciparum in in vitro models” (Bioorg Med Chem Lett, 2011)
The source made the active and inactive calls. The calls are words filed in the database; no cut-off is given here.

Assays:
[1] = test system: Plasmodium falciparum; experiment: Antiplasmodial activity against chloroquine-resistant Plasmodium falciparum K1 after 48 hrs using Hema 3 staining by microscopic analysis; assay type: functional, organism-based; details: K1, 48 h
[2] = test system: Plasmodium falciparum; experiment: Antiplasmodial activity against chloroquine-sensitive Plasmodium falciparum 3D7A assessed as death of all detectable parasites at 4 days dosage of 50 to 500 uM using Hema 3 staining by microscopic analysis; assay type: functional, organism-based
[3] = Toxicity in human mononuclear leukocytes assessed as decrease in cell health at 5 to 500 uM after 5 days by microscopic analysis; assay type: cell-based; details: 120 h
[4] = test system: Plasmodium falciparum; experiment: Antiplasmodial activity against chloroquine-sensitive Plasmodium falciparum 3D7A assessed as death of all detectable parasites at two days dosage of 50 to 500 uM using Hema 3 staining by microscopic analysis; assay type: functional, organism-based
[5] = test system: Plasmodium falciparum; experiment: Antiplasmodial activity against chloroquine-sensitive Plasmodium falciparum 3D7 after 48 hrs using Hema 3 staining by microscopic analysis; assay type: functional, organism-based; details: 3D7, 48 h
[6] = test system: Plasmodium falciparum; experiment: Antiplasmodial activity against chloroquine-sensitive Plasmodium falciparum 3D7A assessed as parasitaemia level at 4 days dosage of 5 uM measured on day 9 using Hema 3 staining by microscopic analysis; assay type: functional
[7] = test system: Plasmodium falciparum; experiment: Antiplasmodial activity against chloroquine-sensitive Plasmodium falciparum 3D7A assessed as parasitaemia level at 4 days dosage of 5 uM using Hema 3 staining by microscopic analysis; assay type: functional
[8] = test system: Plasmodium falciparum; experiment: Antiplasmodial activity against chloroquine-sensitive Plasmodium falciparum 3D7A assessed as death of all detectable parasites at 4 days dosage of 0.5 to 500 uM using Hema 3 staining by microscopic analysis; assay type: functional, organism-based
[9] = test system: Plasmodium falciparum; experiment: Antiplasmodial activity against chloroquine-sensitive Plasmodium falciparum 3D7A assessed as death of all detectable parasites at 4 days dosage of 0.05 uM using Hema 3 staining by microscopic analysis; assay type: functional, organism-based
[10] = test system: Plasmodium falciparum; experiment: Antiplasmodial activity against chloroquine-sensitive Plasmodium falciparum 3D7A assessed as death of all detectable parasites at two days dosage of 0.5 to 500 uM using Hema 3 staining by microscopic analysis; assay type: functional, organism-based
[11] = test system: Plasmodium falciparum; experiment: Antiplasmodial activity against chloroquine-sensitive Plasmodium falciparum 3D7A assessed as death of all detectable parasites at two days dosage of 0.05 uM using Hema 3 staining by microscopic analysis; assay type: functional, organism-based
[12] = test system: Plasmodium falciparum; experiment: Antiplasmodial activity against chloroquine-sensitive Plasmodium falciparum 3D7A assessed as assessed as parasitaemia level at 4 days dosage of 500 uM using Hema 3 staining by microscopic analysis; assay type: functional
[13] = test system: Plasmodium falciparum; experiment: Antiplasmodial activity against chloroquine-sensitive Plasmodium falciparum 3D7A assessed as assessed as parasitaemia level at two days dosage of 500 uM using Hema 3 staining by microscopic analysis; assay type: functional
[14] = test system: Plasmodium falciparum; experiment: Antiplasmodial activity against chloroquine-sensitive Plasmodium falciparum 3D7A assessed as parasitaemia level at two days dosage of 5 uM measured on day 9 using Hema 3 staining by microscopic analysis; assay type: functional
[15] = test system: Plasmodium falciparum; experiment: Antiplasmodial activity against chloroquine-sensitive Plasmodium falciparum 3D7A assessed as undetectable parasitaemia level at 4 days dosage of 5 uM measured on day 3 using Hema 3 staining by microscopic analysis; assay type: functional, organism-based
[16] = test system: Plasmodium falciparum; experiment: Antiplasmodial activity against chloroquine-sensitive Plasmodium falciparum 3D7A assessed as parasitaemia level at two days dosage of 5 uM measured on day 2 using Hema 3 staining by microscopic analysis; assay type: functional

Clc1ccc2c(Nc3cccc(C4=NCCO4)c3)ccnc2c1
IC50 [1]: 895 nM | Activity [2]: Active | Activity [3]: Toxic | Activity [4]: Active | IC50 [5]: 91 nM | Activity [6]: 5% | Activity [7]: 0%

CCN(CC)CCCC(C)Nc1ccnc2cc(Cl)ccc12 (stereo not given) [CHLOROQUINE]
Activity [8]: Active | Activity [3]: Toxic | Activity [9]: inactive | Activity [10]: Active | Activity [11]: inactive

CC1(C)COC(c2ccc(Nc3ccnc4cc(Cl)ccc34)cc2)=N1
IC50 [1]: > 1000 nM | Activity [12]: 0% | IC50 [5]: 308 nM | Activity [13]: 0%

O=C1C(O)=C([C@H]2CC[C@H](c3ccc(Cl)cc3)CC2)C(=O)c2ccccc21 [ATOVAQUONE]
IC50 [1]: 17.7 nM

CC1(C)COC(c2cccc(Nc3ccnc4cc(Cl)ccc34)c2)=N1
IC50 [1]: 711 nM | Activity [2]: Active | Activity [3]: Toxic | Activity [4]: Active | IC50 [5]: 83 nM

Clc1ccc2c(Nc3ccc(C4=NCCO4)cc3)ccnc2c1
IC50 [1]: 846 nM | Activity [14]: 5% | Activity [2]: Active | Activity [3]: Toxic | Activity [15]: Active | Activity [4]: Active | IC50 [5]: 192 nM | Activity [16]: 0.25%
